Biological target: T1, Recombinant human H-PGDS (Homo sapiens, UniProt O60760)
T1 construct: made in house; host or cells: E. coli
Test: H-PGDS inhibitory activity (prostaglandin D2 production from prostaglandin H2, measured by LC-MS/MS)
Format: biochemical
Settings: recombinant human H-PGDS 1.0 nM expressed in E. coli; prostaglandin H2 25 μM; preincubated 15 minutes on ice, reacted on ice for 1 minute; concentration that inhibits prostaglandin D2 production by 50%
In short: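 PGD2 formed from 25 µM prostaglandin H2 during a 1-min on-ice reaction was measured by LC-MS/MS after an FeCl2/citric acid stop. The enzyme was 1.0 nM E. coli-expressed human H-PGDS in Tris-HCl pH 8.0 buffer with MgCl2, reduced glutathione and γ-globulin, preincubated with compound for 15 min on ice. Production was normalised to DMSO controls minus the no-enzyme background.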

T1 sequence (O60760 whole entry): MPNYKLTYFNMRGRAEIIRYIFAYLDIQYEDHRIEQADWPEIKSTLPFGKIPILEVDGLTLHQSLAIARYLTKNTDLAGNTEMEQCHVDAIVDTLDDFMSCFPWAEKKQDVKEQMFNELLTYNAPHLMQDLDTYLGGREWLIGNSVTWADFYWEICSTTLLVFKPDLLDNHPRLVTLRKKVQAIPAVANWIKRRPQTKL

| IC50 [nM] | Compound |
| --- | --- |
| 27 | COCCCNC(=O)c1ccc(-c2nccc3occc23)cc1 [Example 79, 4-(furo[3,2-c]pyridin-4-yl)-N-(3-methoxypropyl) benzamide] |
| 2.4 | Cc1cnc(-c2ccc(C(=O)N[C@H]3CC[C@H](C(C)(C)O)CC3)cc2)c2ccoc12 [Example 129, N-[trans-4-(2-hydroxypropan-2-yl)cyclohexyl]-4-(7-methylfuro[3,2-c]pyridin-4-yl)benzamide] |
| 3.4 | O=C(Nc1cccc(F)c1)c1ccc(-c2nccc3occc23)cc1 [Example 112, N-(3-fluorophenyl)-4-(furo[3,2-c]pyridin-4-yl)benzamide] |
| 3.8 | CC(O)[C@@H]1CC[C@@H](NC(=O)c2ccc(-c3nccc4occc34)cc2)CO1 (stereo partly drawn) [Example 212, 4-(furo[3,2-c]pyridin-4-yl)-N-[(3R,6S)-6-(1-hydroxyethyl)tetrahydro-2 H-pyran-3-yl]benzamide] |
| 1.2 | O=C(NC12CC3CC(CC(O)(C3)C1)C2)c1ccc(-c2nccc3occc23)cc1 [Example 271, 4-(furo[3,2-c]pyridin-4-yl)-N-(3-hydroxyadamantan-1-yl)benzamide] |
| 6.2 | O=C(NC1CCN(c2cnc(CO)cn2)CC1)c1ccc(-c2nccc3occc23)cc1 [Example 170, 4-(furo[3,2-c]pyridin-4-yl)-N-{1-[5-(hydroxymethyl)pyrazin-2-yl]piperidin-4-yl}benzamide] |
| 0.82 | O=C(NCC1CCOC1)c1ccc(-c2nccc3[nH]ccc23)cc1 (centres unmarked) [Example 21, 4-(1H-pyrrolo[3,2-c]pyridin-4-yl)-N-[(tetrahydrofuran-3-yl)methyl] benzamide] |
| 4.9 | O=C(NCC1COc2ccccc2C1)c1ccc(-c2nccc3occc23)cc1 (centres unmarked) [Example 221, N-(chroman-3-ylmethyl)-4-(furo[3,2-c]pyridin-4-yl)benzamide] |
| 3.5 | Cc1cc2c(-c3ccc(C(=O)N[C@H]4CC[C@H](C(C)(C)O)CC4)cc3)nccc2o1 [Example 128, N-[trans-4-(2-hydroxypropan-2-yl)cyclohexyl]-4-(2-methylfuro[3,2-c]pyridin-4-yl)benzamide] |
| 1.4 | Cn1cc(Br)c(CNC(=O)c2ccc(-c3nccc4[nH]ccc34)cc2)n1 [Example 50, N-[(4-bromo-1-methyl-1H-pyrazol-3-yl)methyl]-4-(1H-pyrrolo[3,2-c]pyridin-4-yl)benzamide] |
| 0.63 | O=C(NCCCN1CCS(=O)(=O)CC1)c1ccc(-c2nccc3[nH]ccc23)cc1 [Example 46, N-[3-(1,1-dioxidothiomorpholino)propyl]-4-(1H-pyrrolo[3,2-c]pyridin-4-yl)benzamide] |
| 1.3 | CC(C)O[C@H]1CC[C@H](NC(=O)c2ccc(-c3nccc4occc34)cc2)CC1 [Example 288, 4-(furo[3,2-c]pyridin-4-yl)-N-(trans-4-isopropoxycyclohexyl)benzamide] |
| 4 | COc1ccc(CN2CCC(NC(=O)c3ccc(-c4nccc5occc45)cc3)CC2)cc1Cl [Example 244, N-[1-(3-chloro-4-methoxybenzyl)piperidin-4-yl]-4-(furo[3,2-c]pyridin-4-yl)benzamide] |
| 1.9 | COc1ccnc(N2CCC(NC(=O)c3ccc(-c4nccc5occc45)cc3)CC2)n1 [Example 162, 4-(furo[3,2-c]pyridin-4-yl)-N-[1-(4-methoxypyrimidin-2-yl)piperidin-4-yl]benzamide] |
| 5.7 | O=C(Nc1ccccc1F)c1ccc(-c2nccc3occc23)cc1 [Example 110, N-(2-fluorophenyl)-4-(furo[3,2-c]pyridin-4-yl)benzamide] |
| 2 | O=C(NC1CC2CCC(C1)C2O)c1ccc(-c2nccc3occc23)cc1 (centres unmarked) [Example 281, 4-(furo[3,2-c]pyridin-4-yl)-N-(8-hydroxybicyclo[3.2.1]octan-3-yl)benzamide] |
| 15 | CCc1cnc(-c2ccc(C(=O)N[C@H]3CC[C@H](C(C)(C)O)CC3)cc2)c2ccoc12 [Example 138, 4-(7-ethylfuro[3,2-c]pyridin-4-yl)-N-[trans-4-(2-hydroxypropan-2-yl)cyclohexyl]benzamide] |

Reference: patent US20230339937A1, “CONDENSED RING COMPOUNDS THAT INHIBIT H-PGDS” (SATO PHARMACEUTICAL CO., LTD., priority 2020, published 2023)
